The results in this text go back to US20020051978A1, “Methods and compositions for the identification, assessment, prevention and therapy of human cancers” (priority 2000, published 2002).

“And” between values parts separate entries of the source, which are not always exact repeats. Equal values may be shown once. Read-outs that look alike come from different tables or passages of the source.

This assay concerns 60 cancer cell lines (NCI 60 cancer cell line series). The assay is described as follows: NCI-DTP in vitro cancer screen, sulforhodamine B (SRB) growth inhibition, 48 hour exposure. Format: cell-based, human. As to the method: Cancer Cell Line Preparation. Sixty cancer cell lines were obtained from the National Cancer Institute Developmental Therapeutics Program (NCI-DTP). Procedures for growing cells and testing compounds have been described previously (Scudiero et al., Cancer Res. 1988, 48:4827-4833; Stinson et al., Anticancer Res.; Myers et al., Electrophoresis 1997, 18:647-653). Cells are plated on day 0 at a density individualized for each cell line so that they will generally be sub-confluent at the end of the assay period. On day 1, a compound is added in the format for a duplicate-well, 5-dose, ten-fold interval dose response study.
No-drug, no-cell and no-growth controls are included. On day 3 the cells are processed for staining with sulforhodamine B (SRB), which reflects the amount of cell mass present at the end of a 48 hour exposure to the test agent. From dose response curves based on the SRB data, various parameters can be determined. The one used in the present study is the G15o, defined as the concentration of compound required to inhibit growth of the cell line by 50%. More precisely, the quantity used in the calculation to be described is the potency measure -log{GI50}.
Activity database (A). Table IA, consisting of the growth inhibition (GI5o) values for the 60 cell lines and 24 compounds, was created from the NCI-DTP in vitro cancer screen database. This subset of compounds was selected from the larger 23,000 compound database available from the DTP. The compounds were selected on the basis of their known mechanism of action and chemical structure. The average potency—log{GI50} was extracted from the comma-delimited text files available through the Web at http://www.nci.nih.gov/intra/lmp/jnwbio.htmrl. Subsequently, these log{GI5o} values were inspected manually and classified as indicating either Low, Medium or High sensitivity to each compound.

`COc1cccc2c1C(=O)c1c(O)c3c(c(O)c1C2=O)C[C@@](O)(C(=O)CO)C[C@@H]3O[C@H]1C[C@H](N)[C@H](O)[C@H](C)O1` [Adrlamycin]: the “classification of cell line as Low(1), Medium(2) or High(3) sensitivity to compound” value (from here on “classification of cell line”) reads like this: (Breast BT-549 (CL5013)) 2; (Breast HS-578T CL5006) 2; (Breast MCF7(I) (CL5001)) 3; (Breast MCF7/ADRr (CL5002)) 1; (Breast MDA-MB-231 CL5005) 2; (Breast MDA-MB-435 (CL5011)) 2. Moreover, the “classification of cell line” value (Breast MDA-N CL5012) was 2; the “classification of cell line” value (Breast T-47D (CL5014)) worked out at 2; the “classification of cell line” value (CNS SF-268 CL12014) amounted to 2; the “classification of cell line” value (CNS SF-295 CL12015) is 2.
As for `Nc1ccn([C@@H]2O[C@H](CO)[C@@H](O)[C@@H]2O)c(=O)n1` [AraC], the “1 # of Low” value stood at 17; the “2 # of Medium” value amounted to 33; the “3 # of High” value is 10; the “classification of cell line” value was 2 and 3 and 1. Further, the “sensitivity class NSCLC NCI-H23(I) CL1001” value was 3, the “sensitivity class NSCLC NCI-H332M CL1017” value is 2, the “sensitivity class NSCLC NCI-H460 CL1021” value is 3 and the “sensitivity class NSCLC NCI-H522 CL1003” value is 2. The “sensitivity class Ovarian IGROV1 CL6010” value is reported as 1, the “sensitivity class Ovarian OVCAR-3 CL6001” value is recorded as 1, the “sensitivity class Ovarian OVCAR-4 CL6002” value was 1 and the “sensitivity class Ovarian OVCAR-5 CL6003” value is 2. The “sensitivity class Ovarian OVCAR-8 CL6005” value is recorded as 2, the “sensitivity class Ovarian SK-OV-3 CL6011” value stood at 2, the “sensitivity class Prostate DU-145 CL11003” value worked out at 1 and the “sensitivity class Prostate PC-3(I) CL11001” value is listed as 2. In addition, the “sensitivity class Renal 786-O CL9018” value was found to be 2, the “sensitivity class Renal A498 CL9013” value amounted to 2, the “sensitivity class Renal ACHN CL9023” value is 2 and the “sensitivity class Renal CAKI-1 CL9015” value stood at 2. The “sensitivity class Renal RXF-393 CL9016” value turned out to be 2, the “sensitivity class Renal SN12C CL9008” value was 2, the “sensitivity class Renal TK10 CL9024” value amounted to 1 and the “sensitivity class Renal UO-31 CL9004” value worked out at 2. Besides, the “sensitivity class of the cell line to the compound (1 Low, 2 Medium, 3 High)” value was 2 and 1 and 3.
With `O=NN(CCCl)C(=O)NCCCl` [BCNU], the “1 # of Low” value was 13, the “2 # of Medium” value worked out at 37, the “3 # of High” value came to 10 and the “sensitivity class NSCLC NCI-H23(I) CL1001” value turned out to be 2. The “sensitivity class NSCLC NCI-H332M CL1017” value is on record as 1, the “sensitivity class NSCLC NCI-H460 CL1021” value amounted to 2, the “sensitivity class NSCLC NCI-H522 CL1003” value is 3 and the “sensitivity class Ovarian IGROV1 CL6010” value turned out to be 2. Moreover, the “sensitivity class Ovarian OVCAR-3 CL6001” value is 2, the “sensitivity class Ovarian OVCAR-4 CL6002” value was found to be 2, the “sensitivity class Ovarian OVCAR-5 CL6003” value is listed as 1 and the “sensitivity class Ovarian OVCAR-8 CL6005” value is given as 2. For the same molecule, the “sensitivity class Ovarian SK-OV-3 CL6011” value is on record as 1, the “sensitivity class Prostate DU-145 CL11003” value is reported as 1, the “sensitivity class Prostate PC-3(I) CL11001” value worked out at 2 and the “sensitivity class Renal 786-O CL9018” value came out at 3. Moreover, the “sensitivity class Renal A498 CL9013” value was 1, the “sensitivity class Renal ACHN CL9023” value is given as 2, the “sensitivity class Renal CAKI-1 CL9015” value is listed as 2 and the “sensitivity class Renal RXF-393 CL9016” value was 2. In addition, the “sensitivity class Renal SN12C CL9008” value came out at 2, the “sensitivity class Renal TK10 CL9024” value is given as 2 and the “sensitivity class Renal UO-31 CL9004” value amounted to 1.
On to `COc1cccc2c1C(=O)c1c(O)c3c(c(O)c1C2=O)C[C@@](O)(C(=O)CO)C[C@@H]3O[C@H]1C[C@H](N)C[C@H](C)O1` [Deoxydoxorubicin], for which the “classification of cell line” value was found to be 2 (Breast BT-549 (CL5013)); 1 (Breast MCF7/ADRr (CL5002)); 2 (Breast MDA-N CL5012); 2 (CNS SF-268 CL12014); 2 (CNS SF-295 CL12015); 2 (CNS SF-539 CL12016). Also, the “classification of cell line” value runs as follows: (CNS SNB-19 (CL12002)) 2; (CNS SNB-75(I) CL12005) 2; (CNS U251(I) CL12009) 2; (Colon COLO-250 CL4010) 2; (Colon HCT-15 CL4015) 1; (Colon HT29(I) CL4001) 2. Also, the “classification of cell line” value runs as follows: (Colon KM12 (CL4017)) 2; (Leukemia CCRF-CEM(I) (CL7003)) 2; (Leukemia K562(I) CL7005) 2; (Leukemia RPMI-8226(I) (CL7010)) 2; (Leukemia SR CL7019) 3; (Melanoma LOX IMVI CL10001) 2. For the same molecule, the “classification of cell line” value runs as follows: (Melanoma M14 (CL10014)) 2; (Melanoma MALME-3M CL10002) 2. The “sensitivity class NSCLC NCI-H23(I) CL1001” value (cell line NSCLC NCI-H23(I), CL1001) worked out at 2. For the same molecule, under “cell line NSCLC NCI-H522, CL1003”, the “sensitivity class NSCLC NCI-H522 CL1003” value worked out at 2. Moreover, the “sensitivity class Ovarian IGROV1 CL6010” value (cell line Ovarian IGROV1, CL6010) worked out at 2. In addition, the “sensitivity class Ovarian OVCAR-3 CL6001” value (cell line Ovarian OVCAR-3, CL6001) is on record as 2. Where the note is “cell line Ovarian OVCAR-4, CL6002”, the “sensitivity class Ovarian OVCAR-4 CL6002” value is 2. Further, the “sensitivity class Ovarian OVCAR-8 CL6005” value (cell line Ovarian OVCAR-8, CL6005) amounted to 2. Moreover, the “sensitivity class Ovarian SK-OV-3 CL6011” value (cell line Ovarian SK-OV-3, CL6011) came to 2. In addition, the “sensitivity class Prostate DU-145 CL11003” value (cell line Prostate DU-145, CL11003) came to 2. The “sensitivity class Prostate PC-3(I) CL11001” value (cell line Prostate PC-3(I), CL11001) turned out to be 2. Besides, the “sensitivity class Renal A498 CL9013” value (cell line Renal A498, CL9013) is 2. Moreover, where the note is “cell line Renal SN12C, CL9008”, the “sensitivity class Renal SN12C CL9008” value is 2. Moreover, the “sensitivity class Renal TK10 CL9024” value (cell line Renal TK10, CL9024) came to 1. Moreover, the “sensitivity class Renal UO-31 CL9004” value (cell line Renal UO-31, CL9004) is on record as 1. For the same molecule, under “number of the 60 cell lines classified High (3) sensitivity”, the “3 # of High” value worked out at 7.
As for `CC(=O)O[C@H]1C(=O)[C@@]2(C)[C@H]([C@H](OC(=O)c3ccccc3)[C@]3(O)C[C@H](OC(=O)[C@H](O)[C@@H](NC(=O)c4ccccc4)c4ccccc4)C(C)=C1C3(C)C)[C@]1(OC(C)=O)CO[C@@H]1C[C@@H]2O` [TAXOL, paclitaxel, reference compound], the “classification of cell line” value was 2 and 1 and 3; the “sensitivity class NSCLC NCI-H23(I) CL1001” value worked out at 2; the “sensitivity class NSCLC NCI-H332M CL1017” value is 2; the “sensitivity class Ovarian IGROV1 CL6010” value was 2. Further, the “sensitivity class Ovarian OVCAR-4 CL6002” value worked out at 1, the “sensitivity class Ovarian OVCAR-8 CL6005” value is 2, the “sensitivity class Ovarian SK-OV-3 CL6011” value is listed as 2 and the “sensitivity class Prostate DU-145 CL11003” value was found to be 2. Besides, the “sensitivity class Prostate PC-3(I) CL11001” value is reported as 2, the “sensitivity class Renal 786-O CL9018” value is recorded as 2, the “sensitivity class Renal ACHN CL9023” value is given as 1 and the “sensitivity class Renal CAKI-1 CL9015” value turned out to be 1. Besides, the “sensitivity class Renal RXF-393 CL9016” value was determined as 2; the “sensitivity class Renal SN12C CL9008” value stood at 2; the “sensitivity class Renal UO-31 CL9004” value was found to be 1; the “sensitivity class of the cell line to the compound (1 Low, 2 Medium, 3 High)” value is 1 and 3 and 2.
As to `CC[C@]1(O)C[C@@H]2CN(CCc3c([nH]c4ccccc34)[C@@](C(=O)OC)(c3cc4c(cc3OC)N(C)[C@H]3[C@@](O)(C(=O)OC)[C@H](OC(C)=O)[C@]5(CC)C=CCN6CC[C@]43[C@@H]65)C2)C1.O=S(=O)(O)O` [Vinbiastine sulfate], the “classification of cell line” value was 2 and 3 and 1.
